Columns and labels:
[1] = system: ABUTH (Abutilon theophrasti); assay: Postemergence herbicidal evaluation; format: in vivo, Medic.
Summary of the method: (§1)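 Seedlings grown about two weeks in flats, sprayed, then kept under standard greenhouse care. Rated visually 4–5 weeks after treatment on a 0–9 scale (stand, vigour, malformation, size, chlorosis, overall appearance) relative to untreated control; repeat tests averaged.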

GALAP (Galium aparine) = assay: Postemergence herbicidal evaluation; format: in vivo
Summary of the method: as §1

[2] = system: IPOHE (Ipomoea hederacea); assay: Postemergence herbicidal evaluation; format: in vivo, (L.) Jacq.
Summary of the method: as §1

[3] = system: ECHCG (Echinochloa crus-galli); assay: Postemergence herbicidal evaluation; format: in vivo, (L.) Beau
Summary of the method: as §1

SETVI (Setaria viridis) [4] = assay: Postemergence herbicidal evaluation; format: in vivo, (L.) Beau
Summary of the method: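 Seedlings grown about two weeks were sprayed with compound in 50/50 acetone/water containing 0.5% TWEEN 20, at about 0.0040 to 1.000 kg/ha via nozzle at 40 psi. Plants were kept under greenhouse conditions and visually rated on a 0-9 scale versus control four to five weeks after treatment; replicate tests averaged.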

[5] = system: GLXMAW (Soybean, Williams); assay: Postemergence herbicidal evaluation; format: in vivo, Glycine max, (L.) Merr. cv Williams
Summary of the method: as §1

ORYSAT (Rice, Tebonnet) [6] = assay: Postemergence herbicidal evaluation; format: in vivo, Oryza sativa, (L.) Tebonnet
Summary of the method: as §1

ZEAMX (Corn, Field) = assay: Postemergence herbicidal evaluation; format: in vivo, Zea mays, L.
Summary of the method: as §1

[7] = system: AMBEL (Ambrosia artemisifolia); assay: Preemergence herbicidal evaluation; format: in vivo, L.; conditions: preemergence, rated 4-5 weeks after treatment
Summary of the method: (§2)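 Scores (0–9) reflect visual comparison with control plants for stand, vigor, malformation, size and chlorosis. Seeds in potting soil received a post-planting spray of compound in aqueous acetone and grew in a greenhouse until assessment 4–5 weeks later.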

[8] = system: CASOB (Cassia obtusifolia); assay: Preemergence herbicidal evaluation; format: in vivo, L.; conditions: preemergence, rated 4-5 weeks after treatment
Summary of the method: as §2

[9] = system: CHEAL (Chenopodium album); assay: Preemergence herbicidal evaluation; format: in vivo, L.; conditions: preemergence, rated 4-5 weeks after treatment
Summary of the method: as §2

[10] = system: IPOHE (Ipomoea hederacea); assay: Preemergence herbicidal evaluation; format: in vivo, (L.) Jacq.; conditions: preemergence, rated 4-5 weeks after treatment
[11] = system: ECHCG (Echinochloa crus-galli); assay: Preemergence herbicidal evaluation; format: in vivo, (L.) Beau; conditions: preemergence, rated 4-5 weeks after treatment
Summary of the method: as §2

SETVI (Setaria viridis) [12] = assay: Preemergence herbicidal evaluation; format: in vivo, (L.) Beau; conditions: preemergence, rated 4-5 weeks after treatment
Summary of the method: as §2

ORYSAT (Rice, Tebonnet) [13] = assay: Preemergence herbicidal evaluation; format: in vivo, Oryza sativa, (L.) Tebonnet; conditions: preemergence, rated 4-5 weeks after treatment
[14] = system: ECHORC (Echinochloa oryzoides); assay: Flooded paddy, preemergence weed control; format: in vivo, Echinochloa oryzoides (Ard.) Fritsch.; conditions: rated 3-4 weeks after treatment, 0-9 rating scale
Summary of the method: (§3)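 Silt loam, sowing depth ≤0.5 cm; permanent flood 1.5–3 cm above soil; greenhouse culture after treatment. Readout: 0-9 visual scale (stand, vigor, malformation, size, chlorosis, appearance) vs control.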

CYPIR (Cyperus iria) = assay: Flooded paddy, preemergence weed control; format: in vivo; conditions: rated 3-4 weeks after treatment, 0-9 rating scale
Summary of the method: as §3

[15] = system: MOOVA (Monochoria vaginalis); assay: Flooded paddy, preemergence weed control; format: in vivo, Presl.; conditions: rated 3-4 weeks after treatment, 0-9 rating scale
Summary of the method: as §3

ORYSAT (Rice, Tebonnet) [16] = assay: Flooded paddy, post-transplant rice tolerance; format: in vivo, Oryza sativa, (L.) Tebonnet; conditions: flooded paddy, post-transplant rice, rated 3-4 weeks after treatment, 0-9 rating scale
Summary of the method: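 Scores (0-9) reflect visual injury relative to untreated plants in flooded silt loam. Each pot held two transplanted ten-day-old seedlings under 1.5 to 3 cm standing water in the greenhouse.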

COC(=O)C(C)Oc1ccsc1-c1nsc2ccc(-n3c(=O)cc(C(F)(F)F)n(C)c3=O)cc12 (centres unmarked) [Compound 23, methyl 2-[(2-[5-[3,6-dihydro-3-methyl-2,6-dioxo-4-(trifluoromethyl)-1(2H)-pyrimidinyl]-1,2-benzisothiazol-3-yl]-3-thienyl]oxy]propionate]
Postemergence herbicidal rating, ABUTH ([1]; rate 0.0320 kg/ha): 9.0 | Postemergence herbicidal rating, ABUTH ([1]; rate 0.0620 kg/ha): 9.0 | Postemergence herbicidal rating, ABUTH ([1]; rate 0.1250 kg/ha): 9.0 | Postemergence herbicidal rating, GALAP (GALAP (Galium aparine); rate 0.0320 kg/ha): 1.0 | Postemergence herbicidal rating, GALAP (GALAP (Galium aparine); rate 0.0620 kg/ha): 2.0 | Postemergence herbicidal rating, GALAP (GALAP (Galium aparine); rate 0.1250 kg/ha): 2.0 | Postemergence herbicidal rating, IPOHE ([2]; rate 0.0320 kg/ha): 6.0 | Postemergence herbicidal rating, IPOHE ([2]; rate 0.0620 kg/ha): 5.0 | Postemergence herbicidal rating, IPOHE ([2]; rate 0.1250 kg/ha): 9.0 | Postemergence herbicidal rating, ECHCG ([3]; rate 0.0320 kg/ha): 0.0 | Postemergence herbicidal rating, ECHCG ([3]; rate 0.0620 kg/ha): 1.0 | Postemergence herbicidal rating, ECHCG ([3]; rate 0.1250 kg/ha): 5.0 | Postemergence herbicidal rating, SETVI (SETVI (Setaria viridis) [4]; rate 0.0320 kg/ha): 1.0 | Postemergence herbicidal rating, SETVI (SETVI (Setaria viridis) [4]; rate 0.0620 kg/ha): 1.0 | Postemergence herbicidal rating, SETVI (SETVI (Setaria viridis) [4]; rate 0.1250 kg/ha): 7.0 | Postemergence herbicidal rating, GLXMAW ([5]; rate 0.0320 kg/ha): 4.0 | Postemergence herbicidal rating, GLXMAW ([5]; rate 0.0620 kg/ha): 5.0 | Postemergence herbicidal rating, GLXMAW ([5]; rate 0.1250 kg/ha): 5.0 | Postemergence herbicidal rating, ORYSAT (ORYSAT (Rice, Tebonnet) [6]; rate 0.0320 kg/ha): 2.5 | Postemergence herbicidal rating, ORYSAT (ORYSAT (Rice, Tebonnet) [6]; rate 0.0620 kg/ha): 3.5 | Postemergence herbicidal rating, ORYSAT (ORYSAT (Rice, Tebonnet) [6]; rate 0.1250 kg/ha): 5.0 | Postemergence herbicidal rating, ZEAMX (ZEAMX (Corn, Field); rate 0.0320 kg/ha): 5.0 | Postemergence herbicidal rating, ZEAMX (ZEAMX (Corn, Field); rate 0.0620 kg/ha): 6.5 | Postemergence herbicidal rating, ZEAMX (ZEAMX (Corn, Field); rate 0.1250 kg/ha): 7.0 | AMBEL preemergence herbicidal rating ([7]; Rate 0.0620 kg/ha): 0.0 | AMBEL preemergence herbicidal rating ([7]; Rate 0.1250 kg/ha): 9.0 | AMBEL preemergence herbicidal rating ([7]; Rate 0.2500 kg/ha): 9.0 | CASOB preemergence herbicidal rating ([8]; Rate 0.0620 kg/ha): 0.0 | CASOB preemergence herbicidal rating ([8]; Rate 0.1250 kg/ha): 1.0 | CASOB preemergence herbicidal rating ([8]; Rate 0.2500 kg/ha): 6.0 | CHEAL preemergence herbicidal rating ([9]; Rate 0.0620 kg/ha): 9.0 | CHEAL preemergence herbicidal rating ([9]; Rate 0.1250 kg/ha): 0.0 | CHEAL preemergence herbicidal rating ([9]; Rate 0.2500 kg/ha): 4.0 | IPOHE preemergence herbicidal rating ([10]; Rate 0.0620 kg/ha): 0.0 | IPOHE preemergence herbicidal rating ([10]; Rate 0.1250 kg/ha): 0.0 | IPOHE preemergence herbicidal rating ([10]; Rate 0.2500 kg/ha): 0.0 | ECHCG preemergence herbicidal rating ([11]; Rate 0.0620 kg/ha): 0.0 | ECHCG preemergence herbicidal rating ([11]; Rate 0.1250 kg/ha): 0.0 | ECHCG preemergence herbicidal rating ([11]; Rate 0.2500 kg/ha): 1.0 | SETVI preemergence herbicidal rating (SETVI (Setaria viridis) [12]; Rate 0.0620 kg/ha): 0.0 | SETVI preemergence herbicidal rating (SETVI (Setaria viridis) [12]; Rate 0.1250 kg/ha): 0.0 | SETVI preemergence herbicidal rating (SETVI (Setaria viridis) [12]; Rate 0.2500 kg/ha): 1.0 | ORYSAT preemergence herbicidal rating (ORYSAT (Rice, Tebonnet) [13]; Rate 0.0620 kg/ha): 0.0 | ORYSAT preemergence herbicidal rating (ORYSAT (Rice, Tebonnet) [13]; Rate 0.1250 kg/ha): 0.0 | ORYSAT preemergence herbicidal rating (ORYSAT (Rice, Tebonnet) [13]; Rate 0.2500 kg/ha): 0.0 | herbicidal rating, ECHORC ([14]; rate 0.0320 kg/ha): 0.0 | herbicidal rating, ECHORC ([14]; rate 0.1250 kg/ha): 3.0 | herbicidal rating, CYPIR (CYPIR (Cyperus iria); rate 0.0320 kg/ha): 9.0 | herbicidal rating, CYPIR (CYPIR (Cyperus iria); rate 0.1250 kg/ha): 9.0 | herbicidal rating, MOOVA ([15]; rate 0.0320 kg/ha): 9.0 | herbicidal rating, MOOVA ([15]; rate 0.1250 kg/ha): 9.0 | herbicidal rating, ORYSAT (rice tolerance) (ORYSAT (Rice, Tebonnet) [16]; rate 0.0320 kg/ha): 0.0 | herbicidal rating, ORYSAT (rice tolerance) (ORYSAT (Rice, Tebonnet) [16]; rate 0.1250 kg/ha): 3.0
